How the values were obtained:
[1] = tested on: rats with fluid percussion injury (FPI); experiment: Traumatic brain injury (fluid percussion injury), neurobehavioral score and MRI; format: in vivo; details: moderate FPI; 1 μg/per rat into subdural space 1 h after TBI; days 1-14; versus CSF
Description: FIGS. 23A and 23C: delivery via an intravenous injection; FIG. 23B: delivery via subdural injection. SD rats were subjected to a moderate fluid percussion injury (FPI) model and treated (1 μg/per rat) with 32- and 34 carbon elovanoids as the methyl ester (ME) or sodium salt (Na) (ELV-N32-ME, ELV-N34-ME, ELV-32-Na-d2, ELV-N34-Alkyne) or of vehicle (cerebral spinal fluid; CSF). Treatments were delivered into subdural space at 1 h after TBI. Animals received neurobehavioral examination (normal=0, maximal deficit=12) on days 1, 2, 3, 7 or 14. […] ELV-N34-Alkyne (IV, 300 μg/per animal). All animals received neurobehavioral examination (normal=0, maximal deficit=12) on days 1, 2, 3, 7 or 14.
FIG. 34 is a schematic representation of an experimental protocol for to study the effects of traumatic brain injury through one exemplary model. Briefly, moderate TBI was administered via fluid percussion injury (FPI) to the right parieto-occipital area in male Sprague Dawley rats followed by treatment with elovanoids, behavioral testing, and ex vivo MRI histopathology.
Briefly, Sprague-Dawley rats (280-350 g) were subjected to 4.8 mm craniotomy overlying the right parietal cortex (3.8 mm posterior to bregma and 2.5 mm lateral to midline) was performed 24 hours before fluid percussion injury. A plastic adaptor with a plug was positioned over the craniotomy. […]

[2] = tested on: rats with middle cerebral artery occlusion (MCAo); experiment: Immunohistochemistry (NeuN, GFAP, SMI-71, IgG) after MCAo; format: in vivo, rat; details: for IgG staining in the cortex / IgG staining intensity: 7 days; for IgG immunoreactivity in subcortex / IgG immunoreactivity in whole hemisphere (total): versus the vehicle group; for IgG staining intensity: compared with CSF-treated group
Description: Male Sprague-Dawley rats (Charles River Lab., Wilmington, Mass.) weighing 280-340 g were fasted overnight but allowed free access to water. Atropine sulfate (0.5 mg/kg, i.p.) was injected 10 mins before anesthesia. Anesthesia was induced with 3% isoflurane in a mixture of 70% nitrous oxide and 30% oxygen. All rats were orally intubated and mechanically ventilated. During ventilation, the animals were paralyzed with pancuronium bromide (0.6 mg/kg, i.p.). The catheters were implanted into the right femoral artery and vein for the blood sampling and infusion of drug. Serial analyses of arterial blood gases, plasma glucose, arterial blood pressure and heart beating rate were conducted before and during surgical procedure. Rectal (CMA/150 Temperature Controller, CMA/Microdialysis AB, Stockholm, Sweden) and cranial (temporalis muscle; Omega Engineering, Stamford, Conn.) temperatures were closely monitored before, during and after MCAo. Rectal temperature and body weight were monitored daily until sacrifice.
Rats underwent 2 h of right middle cerebral artery occlusion (MCAo) by an intraluminal-filament. In brief, the right common carotid artery (CCA) bifurcation was exposed through a midline neck incision and the occipital artery branches of the external carotid artery were isolated, ligated and dissected. After careful isolation of the internal carotid artery (ICA), a 3-0 monofilament coated with poly-L-lysine was advanced through the ICA to the MCA until mild resistance was felt. The neck incision was closed with a silk suture and the animals were then allowed to recover. After 2 h of MCAo, rats were re-anesthetized with the same anesthetic combination. Temperature probes were re-inserted, and intraluminal sutures were carefully removed. The animals given free access to food and water for 7 days.
Thirty minutes after suture removal, a brain infusion cannula was implanted into the right lateral ventricle for treatment administration in each rat. Rats were anesthetized with 3% isoflurane and were secured to a stereotaxic apparatus with skull leveled between bregma and lambda. A sterile stainless steel cannula (5-mm long) was implanted into the lateral ventricle using the stereotaxic coordinates (0.2 mm caudal to bregma, 2 mm lateral to midline, and 5 mm below the dura). Cannulas were removed after treatment was completed.
Elovanoids (ELV) as sodium salts (Na) or methyl esters (Me) were dissolved in artificial cerebral spinal fluid (CSF) and administered into right lateral ventricle 1 hour after 2 h of MCAo. The following ELVs were used: ELV-N32-Na, ELV-N32-Me, ELV-N34-Na and ELV-N34-Me (5 μg/[…]) or CSF (50 μl). All treatments were administered by a researcher blinded to the treatment groups.
Brain edema was measured by the differences of ipsi- and contra-lateral hemispheres. Immunohistochemical procedures were performed on the adjacent sections to identify specific vascular and neuronal elements in the ischemic core and penumbra. The following antibodies were used: rat blood-brain barrier (SMI-71, BioLegend, San Diego, Calif.) as a vascular marker; glial fibrillary acid protein (GFAP, Agilent Tech. Santa Clara, Calif.) to label reactive astrocytes; and neuron-specific nuclear protein (NeuN, Chemicon/Millipore, Billerica, Mass.) and biotinylated anti-rat immunoglobulin (IgG) antibody (BioLegend, San Diego, Calif.) to detect BBB breakdown. The number of positive cells and immunopositive vessels were counted in the cortex and striatum at the level of the central lesion (bregma level −0.3 mm). Data were expressed as numbers of positive cells and vessels per high-power microscopic field (magnification ×40).
The images of sections were obtained using confocal laser microscope (LSM510, Carl Zeiss MicroImaging, Irvine, Calif.) following specific experimental protocols. The images were acquired with dimension 212.3 μm×212.3 μm using Zen software (Carl Zeiss MicroImaging). Image analysis was conducted using ImageJ software. […]

| SMILES | neurologic score (normal=0, maximal deficit=12) [1] | IgG staining in the cortex [2] | IgG immunoreactivity in subcortex [2] | IgG immunoreactivity in whole hemisphere (total) [2] | IgG staining intensity [2] |
| --- | --- | --- | --- | --- | --- |
| CC/C=C\C[C@H](O)\C=C/C=C/C=C/[C@H](O)C/C=C\C/C=C\CCCCCCCCCCCCCCC(=O)OC [ELV-N34-Me, methyl (16Z,19Z,22R,23E,25E,27Z,29S,31Z)-22,29-dihydroxytetratriaconta-16,19,23,25,27,31-hexaenoate] | improved neurologic score | significantly less IgG staining | significantly reduced | significantly reduced |  |
| CC/C=C\C[C@H](O)\C=C/C=C/C=C/[C@H](O)C/C=C\C/C=C\CCCCCCCCCCCCCCC(=O)[O-].[Na+] [ELV-N34-Na, sodium (16Z,19Z,22R,23E,25E,27Z,29S,31Z)-22,29-dihydroxytetratriaconta-16,19,23,25,27,31-hexaenoate] |  | significantly less IgG staining | significantly reduced | significantly reduced |  |
| CC/C=C\C[C@H](O)\C=C/C=C/C=C/[C@H](O)C/C=C\C/C=C\CCCCCCCCCCCCC(=O)[O-].[Na+] [ELV-N32-Na, sodium (14Z,17Z,20R,21E,23E,25Z,27S,29Z)-20,27-dihydroxydotriaconta-14,17,21,23,25,29-hexaenoate] |  |  |  |  | similar |
| CC/C=C\C[C@H](O)\C=C/C=C/C=C/[C@H](O)C/C=C\C/C=C\CCCCCCCCCCCCC(=O)OC [ELV-N32-Me, methyl (14Z,17Z,20R,21E,23E,25Z,27S,29Z)-20,27-dihydroxydotriaconta-14,17,21,23,25,29-hexaenoate] | improved neurologic score |  |  |  | similar |
